Where a SMILES comes first, the peptide text is derived from it.
Columns and labels:
[1] = stability testing in intestinal perfusate; format: in vitro ADME; settings: male, Sprague Dawley, rat, intestinal (jejunal) perfusate, pH 6.5, rat
Protocol: (§1) Stability testing of the various compounds was performed in buffer, intestinal perfusate, and an intestinal homogenate preparation to assess the potential oral availability of these compounds. Initial studies prepared the tissue for stability studies. The buffer used in stability testing is 10 mM MES (pH 6.5) containing 135 mM NaCl, and 5 mM KCl. To collect intestinal perfusate from rats, male Sprague Dawley rats, 8 to 10 weeks old, weighing 250 to 350 g were fasted 15 to 18 hours with water given ad libitum. Anesthesia was administered by intramuscular injection of pentobarbital/ketamine (40 mg/kg and 80 mg/kg, respectively). The rats were placed on a warming pad under a surgical lamp to maintain body temperature and jejunal intestinal segments were exposed through a midline, abdominal incision. Approximately 20 cm segment of the jejunum (2 to 4 cm distal to the ligament of Treitz) was cannulated and the intestinal segments were perfused with 10 mM MES (pH 6.5) containing 135 mM NaCl, and 5 mM KCl at a flow-rate of 0.5 ml/min at 37° C. using a constant infusion pump (Harvard Apparatus, South Natick, Mass.). The collected perfusate was stored at −80° C. until use for ex vivo stability studies. After collection, the perfused intestinal segments were flushed with ice-cold 0.15 M KCl solution and the animal was euthanized and the jejunal intestinal segment detached. The inner intestinal tissue layers are scraped out and homogenized in MES buffer (pH 6.5) in a ratio of 1 part of intestinal tissue to 5 parts buffer. Total protein content of the perfusate and the homogenate were determined using a Biorad protein assay kit. The intestinal homogenate samples were used immediately or rapidly frozen at −80° C. until stability analysis.
The actual stability testing protocol is as follows: A 0.1 ml aliquot of the synthetic peptide solution (1 mg/ml) was added to 0.9 ml of MES buffer, pH 6.5, intestinal perfusate, or intestinal homogenate at 37° C. Samples were mixed by vortexing and 100 microliter aliquots were removed over a 60 to 90 minute period for analysis of breakdown products. The 100 microliter sample aliquots were diluted 10 fold with water and subjected to solid phase extraction using a Waters Oasis HLB column. Briefly, the columns were preconditioned by passing 1 ml of MeOH and 1 ml of water over the column, and 1 ml of sample was added to the column. The column was washed with 5% methanol:95% water solution to remove proteins and salts, then eluted with 1 ml of 100% methanol. The methanol was removed by vacuum, and the sample was reconstituted in mobile phase for LC/MS/MS analysis.
LC/MS/MS analysis was performed on a HP1100 HPLC (Hewlett Packard) interfaced with a Quattro II MS/MS detector (Waters/Micromass). For the HPLC separation, a 10 μL aliquot of sample in a mobile phase consisting of an equal volume mixture of acetonitrile/water containing 0.5% formic acid was injected onto a 150 mm×2.2 mm, 5 μm C8 column (Higgins Analytical Inc) and developed at a flow rate of 0.2 ml/min for 5 minutes. The MS detector was used in single ion recording mode at a cone voltage of 50 Volts.

[2] = stability testing in MES buffer (pH 6.5); format: physicochemical; settings: 37° C., read-out: t1/2 (min) MES Buffer (pH 6.5)
Protocol: as §1
The actual stability testing protocol is as follows: A 0.1 ml aliquot of the synthetic peptide solution (1 mg/ml) was added to 0.9 ml of MES buffer, pH 6.5, intestinal perfusate, or intestinal homogenate at 37° C. Samples were mixed by vortexing and 100 microliter aliquots were removed over a 60 to 90 minute period for analysis of breakdown products. […]

[3] = test system: normal human citrated plasma; assay: activated partial thromboplastin time (APTT); format: biochemical
Protocol: The influence of the various peptide formulations used in the present invention on established coagulation-based assays was determined. The activated partial thromboplastin time (APTT) is performed by mixing 0.05 ml normal human citrated plasma with 0.05 ml activated partial thromboplastin reagent purchased from Organon Teknika, Research Triangle Park, NC in the absence or presence of a peptide inhibitor. After incubation for 5 min at 37° C., the mixture is recalcified with 0.05 ml of 30 mM calcium chloride and the time to clot formation is measured in an Amelung KC4A instrument (Sigma Chemical Corp, St. Louis, Mo.) (Hasan et al. Thrombosis and Haemostasis. 82, 1182-1187 (1999)). The prothrombin time (PT) is performed by mixing 0.05 ml normal human citrated plasma with 0.05 ml Simplastin (Organon Teknika, Research Triangle Park, NC) followed by incubation for 3 min at 37° C. in the absence or presence of a peptide inhibitor. At the addition of 0.05 ml of 30 mM calcium chloride, the time to clot formation is measured in an KC4A instrument (Sigma Chemical Corp, St. Louis, Mo.) (Hasan et al. Thrombosis and Haemostasis. 82, 1182-1187 (1999)). The thrombin clotting time (TCT) is performed by adding 0.1 ml normal human citrated plasma in the absence or presence of a peptide inhibitor and 0.05 ml of a α-thrombin solution such that the final concentration of the thrombin in the entire mixture was 1 nM. Upon addition of the thrombin, the time to clot formation is measured in an KC4A instrument (Sigma Chemical Corp, St. Louis, Mo.).

SMILES	half-life at 0.1 mg/ml ([1]; 37° C., read-out: t1/2 (min) Intestinal Perfusate) [min]	half-life at 0.1 mg/ml ([1]; read-out: t1/2 in intestinal perfusate (converted)) [min]	half-life at 0.1 mg/ml [2] [min]	peptide concentration with significant prolongation (p<0.05) of the APTT [3] [µM]
N=C(N)NCCC[C@@H](N)C(=O)N1[C@H](C(=O)N2CCC[C@H]2C(=O)NCC(=O)N[C@@H](Cc2ccccc2)C(N)=O)C[C@@H]2CCCC[C@@H]21 [rOicPGF, D-Arg-Oic-Pro-Gly-Phe, reference compound] (HELM PEPTIDE1{[dR].[O=C([C@@H]1C[C@@H]2CCCC[C@@H]2N1[*:1])[*:2]].P.G.F.[am]}$$$$V2.0)	111	120	179	–
Cc1ccc(C[C@H](NC(=O)[C@@H](C)NC(=O)[C@@H]2CCCN2C(=O)[C@@H]2C[C@@H]3CCCC[C@@H]3N2C(=O)[C@H](N)CCCNC(=N)N)C(N)=O)cc1 [rOicPaF(p-Me), D-Arg-Oic-Pro-D-Ala-Phe(p-Me)] (HELM PEPTIDE1{[dR].[O=C([C@@H]1C[C@@H]2CCCC[C@@H]2N1[*:1])[*:2]].P.[dA].[Cc1ccc(C[C@H](N[*:1])C(=O)[*:2])cc1].[am]}$$$$V2.0)	–	–	–	1.56

— patent publication US7879792B2, “Synthetic peptide inhibitors of thrombin and thrombin activation of protease activated receptors 1 and 4” (The Regents of the University of Michigan, priority 2005, dated 2011)
